Data published in patent US8609870B2, “Treating various disorders using TrkB agonists” (Emory University, priority 2008, dated 2013).

Tests used:
TrkB [1] = target: T1, TrkB (Mus musculus, UniProt P15209); test: TrkB activation in mouse brain after i.p. or oral administration; type: in vivo
T1 construct: Brain lysates were prepared and analyzed by immunoblotting; from tissue; host or cells: mouse brain
Protocol: Unless specifically described, brain tissues are fixed in 4% paraformaldehyde overnight followed by paraffin embedding. Sections of 5 μm are cut. For immunohistochemical staining, brain sections are deparaffinized in xylene and rehydrated in graded alcohols. Endogenous peroxidase activity are blocked by 3% hydrogen peroxide for 5 minutes and all slides are boiled in 10 mM sodium citrate buffer (pH 6.0) for 10 minutes. Phosphorylated Trk A, Trk A, phosphorylated Trk B, and Trk B are detected using specific antibodies and, e.g., a Zymed HistostainPlus AEC kit (Invitrogen; Carlsbad, Calif.). Slides then are counterstained with hematoxylin.
To assess whether an identified active compound provokes TrkB activation in the brain, mice are intraperitoneally injected with a dose of 5 mg/kg and analyzed at various time points. […] Further, whether the protein and mRNA levels of the neurotrophic receptors is altered after treatment with an identified active compound is measured.
Both Akt and Erk1/2 were robustly activated by these molecules as well). […] The minimal required drug concentration was about 100-250 nM (see FIG. 7, right panels). […] To assess whether deoxygedunin provokes TrkB activation in the brain, mice (i.p.) were injected with a dose of 5 mg/kg for various time points. […] To establish that deoxygedunin is orally bioactive in provoking TrkB activation, two to three month old C57BL/6J mice were orally injected with various doses of 7,8-dihydroxyflavone or deoxygedunin then sacrificed 2 to 4 hours after administration. Brain lysates were prepared and analyzed by immunoblotting (see FIG. 10).

hippocampal neurons = test: Glutamate-triggered apoptosis in hippocampal neurons (MR(DEVD)2 / condensed nuclei); type: cell-based; settings: 0.5 μM preincubated 30 min, then 50 μM glutamate 16 h
Protocol: To create and test reporter cell lines. In order to identify small molecules that mimic BDNF and activate TrkB, TrkB stably transfected murine cell lines are created. The T48 and T62 cell lines are created by transfecting basal forebrain SN56 cells, which express negligible TrkB, with a TrkB expression construct. To test expression of TrkB, the cells are treated with BDNF, which is predicted to result in strong phosphorylation of Trk-490 and Akt activation in comparison to the TrkA NTR stably expressing T17 cell line indicating expression of TrkB. To test resistance to apoptosis, the SN56 cells and the T48 cell line are either untreated or treated with BDNF, and then are subjected to an apoptotic assay. The apoptotic assay involves treating the cells with 0.75 μM Staurosporine for 9 hours, and 1 hour before completing the experiment, the cells are treated with 10 μM MR (DEVD)2. The cells then are fixed with 4% paraformaldehyde for 15 minutes, washed with phosphate buffered saline (PBS), and incubated with Hoechst 33342 for 10 minutes. Cover slides are washed with PBS, mounted, and then the cells are examined using a fluorescent microscope to see which cells turn red upon caspase cleavage.
To compare the apoptosis inhibitory activity of identified active compounds, the compounds are preincubated with SN56 and T48 cells, and subsequently are subjected to the fluorescent apoptotic assay as described above. To examine whether these identified active compounds promote neuronal survival, hippocampal neurons are prepared and the cultures are pretreated with the identified active compounds for 30 minutes, followed by treatment with 50 μM glutamate for 16 hours.
Using a cell-based screen as described above in Example 1 (based on the anti-apoptotic action of TrkB signaling) and the chemical library from the Spectrum Collection (described above), 66 positive hits were generated, four of which were gedunin derivatives. […] In this assay, neurons with both cleaved caspase (MR (DEVD)2 red cells) and condensed nuclei (DAPI staining) were counted as apoptotic cells. […]

TrkB [2] = target: T1, TrkB; test: TrkB activation in BDNF cortex conditional knockout mice; type: in vivo; settings: 5 mg/kg i.p., sacrificed at 4 hours; wild-type and BDNF −/− mice
Text: The Cortex-Specific Cre mouse line was previously described as “transgenic line C” (Chhatwal et al., Gene Ther. 14, 575-583 (2007)). Briefly, coding sequence for Cre-recombinase (Cre-IRES-DsRed2) was placed downstream of a 3 kb cholecystokinin (CCK) promoter, linearized, purified, and microinjected into the pronuclei of one-cell C57/BL6 embryos, which were then implanted into pseudopregnant C57/BL6 females. Following verification of gene expression in the different transgenic lines (Chhatwal et al., Nat. Neurosci. 9, 870-872 (2006)), the cortex-specific “line C” was crossed to a floxed-stop lacZ reporter mouse line (Soriano, Nat. Genet., 21, 70-71 (1999)) as well as the floxed BDNF mouse line (Rios et al., Mol. Endocrinol., 15, 1748-1757 (2001)). Region specific Cre gene expression and BDNF deletion were confirmed with in situ hybridization, x-gal staining for β-galactosidase expression, and Western blot for BDNF protein levels.
To examine whether deoxygedunin activating TrkB involved endogenous BDNF, BDNF conditional knockout mice with BDNF gene deletion limited to cortex (thus allowing normal development) were used. Deoxygedunin (5 mg/kg) was intraperitoneally injected into the BDNF cortex conditional knockout mice and the mice were sacrificed at 4 hours. […]

TrkB [3] = target: T2, TrkB (Homo sapiens, UniProt Q16620); test: Tyrosine phosphorylation of TrkB in transfected HEK293 cells; type: cell-based
T2 construct: expressed in transfected cells; host or cells: HEK293
T2 sequence (Q16620 32-822, species assumed): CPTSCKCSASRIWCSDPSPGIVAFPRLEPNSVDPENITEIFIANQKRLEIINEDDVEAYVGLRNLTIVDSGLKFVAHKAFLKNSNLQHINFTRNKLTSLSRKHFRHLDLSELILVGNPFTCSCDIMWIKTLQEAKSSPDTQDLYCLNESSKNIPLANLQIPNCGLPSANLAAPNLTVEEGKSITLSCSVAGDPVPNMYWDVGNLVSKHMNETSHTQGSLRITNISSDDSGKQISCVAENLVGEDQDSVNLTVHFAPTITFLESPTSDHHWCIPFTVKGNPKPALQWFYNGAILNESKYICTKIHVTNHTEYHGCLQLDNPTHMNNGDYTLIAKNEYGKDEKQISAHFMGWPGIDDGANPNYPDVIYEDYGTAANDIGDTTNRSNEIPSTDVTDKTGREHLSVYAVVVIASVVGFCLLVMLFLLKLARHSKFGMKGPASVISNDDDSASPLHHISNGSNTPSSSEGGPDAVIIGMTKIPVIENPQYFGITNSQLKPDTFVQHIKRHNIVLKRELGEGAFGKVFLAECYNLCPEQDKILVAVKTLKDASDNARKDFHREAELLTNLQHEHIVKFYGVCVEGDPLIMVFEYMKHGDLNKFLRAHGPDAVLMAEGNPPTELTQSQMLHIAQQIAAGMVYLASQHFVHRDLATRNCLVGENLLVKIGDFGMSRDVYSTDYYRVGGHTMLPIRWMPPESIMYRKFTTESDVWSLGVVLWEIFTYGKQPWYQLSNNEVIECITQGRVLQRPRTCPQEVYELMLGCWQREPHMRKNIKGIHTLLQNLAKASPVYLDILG
Text: To determine if an identified active compound promotes tyrosine phosphorylation of the other Trk receptors, HEK293 cells are transfected with various Trk receptors, which is followed by treatment with the identified active compound. Treatment with an identified active compound that elicits tyrosine phosphorylation in the TrkB receptor but not in the TrkA or TrkC receptor indicates an active compound.
To determine whether deoxygedunin binds the intra-cellular domain (ICD) or extra-cellular domain (ECD) of the TrkB receptor, ligand binding assays with [^3H]-deoxygedunin were performed. […] The coprecipitated HA-TrkB was also prominently tyrosine phosphorylated (see FIG. 14, 3rd panel).

T1 sequence (P15209 32-821): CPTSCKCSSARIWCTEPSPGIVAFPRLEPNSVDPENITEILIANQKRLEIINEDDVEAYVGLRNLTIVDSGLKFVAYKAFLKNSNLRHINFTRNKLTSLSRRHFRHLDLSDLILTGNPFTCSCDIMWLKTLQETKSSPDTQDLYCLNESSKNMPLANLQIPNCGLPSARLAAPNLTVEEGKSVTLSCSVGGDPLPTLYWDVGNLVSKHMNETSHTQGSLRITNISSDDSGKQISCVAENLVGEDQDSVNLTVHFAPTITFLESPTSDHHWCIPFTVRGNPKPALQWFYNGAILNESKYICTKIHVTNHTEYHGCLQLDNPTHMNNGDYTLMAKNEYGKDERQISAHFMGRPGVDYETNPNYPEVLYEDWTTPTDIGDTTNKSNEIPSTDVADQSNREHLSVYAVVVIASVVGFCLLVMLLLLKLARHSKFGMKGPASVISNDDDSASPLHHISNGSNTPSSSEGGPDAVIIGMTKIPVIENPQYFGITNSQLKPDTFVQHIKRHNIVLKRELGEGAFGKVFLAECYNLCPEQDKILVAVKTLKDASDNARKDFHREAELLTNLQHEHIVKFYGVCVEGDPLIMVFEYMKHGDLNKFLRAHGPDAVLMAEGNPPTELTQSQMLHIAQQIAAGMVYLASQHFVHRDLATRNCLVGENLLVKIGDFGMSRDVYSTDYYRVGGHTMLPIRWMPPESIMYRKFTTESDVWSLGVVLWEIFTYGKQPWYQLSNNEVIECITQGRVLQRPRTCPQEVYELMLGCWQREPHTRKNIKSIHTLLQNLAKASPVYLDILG

CC(=O)O[C@@H]1C[C@H]2C(C)(C)C(=O)C=C[C@]2(C)[C@H]2CC[C@]3(C)C(=CC(=O)O[C@H]3c3ccoc3)[C@@]21C [deoxygedunin]
time after injection at which TrkB was phosphorylated in the brain (TrkB [1]; mice, 5 mg/kg i.p.): 2 h
time of peak TrkB phosphorylation in the brain (TrkB [1]; mice, 5 mg/kg i.p.): 4 to 8 h
blood-brain barrier penetration (TrkB [1]; mice, 5 mg/kg i.p., inferred from brain TrkB phosphorylation): penetrated the blood-brain barrier
TrkB activation in hippocampus (immunohistochemistry staining) (TrkB [1]; mouse hippocampus upon treatment): robust TrkB activation in hippocampus
protective effect (apoptosis inhibitory activity) (hippocampal neurons): most robust protective effect
TrkB activation (TrkB [2]): TrkB activation occurred in both wild-type and BDNF −/− mice
tyrosine phosphorylation in TrkB (TrkB [3]): elicited tyrosine phosphorylation in TrkB
